Several values for one entry are separate records, joined by “and”; a condition that tells them apart may be missing. Equal values may be shown once. Read-outs that look alike come from different tables or passages of the source.
Key:
[1] = test system: fleas (Ctenocephalides felis); experiment: Flea control on carpet circles by S-methoprene volatilized from a 100-watt light bulb in a test room; assay type: in vivo; conditions: for Efficacy at Indicated Distance from Source, 35-Day Residual Effect: carpet rested 35 days before infestation
Procedure: This example illustrates the efficacy of S-methoprene volatilized by heating from an incandescent light bulb in the control of fleas (Ctenocephalides felis).
Testing was performed in a test room measuring 8.5 m (28 ft.) (length)×6.1 m (20 ft) (width)×4.3 m (14 ft.) (height) with a movable partition to reduce the room to the desired size. For this series of tests, the partition was placed in various positions such that the horizontal area of the room was variously:
A single standard 100-watt incandescent light bulb was used as the heating source, and a felt ring that was cut to fit on the top of the light bulb was used as the support for the liquid S-methoprene solution. Three liquid S-methoprene solutions were used as follows:
Solution A: S-methoprene and IRGANOX® L57 (in a weight ratio of 50:1), to achieve a solution of […] S-methoprene by weight. IRGANOX ® L57 (Ciba-Geigy Corp., Hawthorne, N.Y., USA) is a liquid aminic antioxidant in the form of an alkylated diphenylamine. No solvents were used.
Solution B: S-methoprene and BHT (in a weight ratio of 50:1), dissolved in a mixture of 1-methoxy-2-propanol and deionized water (in a weight ratio of 84:16) to achieve a solution of 5.2% S-methoprene by weight.
Solution C: S-methoprene and BHT (in a weight ratio of 50:1), dissolved in a mixture of 1-methoxy-2-propanol and Belmay B-5 Fragrance (in a weight ratio of 44:56) to achieve a solution of 5% S-methoprene by weight.
As the infested target, circular pieces of carpet were used. Each piece was 7.6 cm (3 inches) in diameter cut from a 1.3-cm (0.5-inch) pile nylon carpet, and individual circles were placed at distances of 0.61 m (2 ft), 3.0 m (10 ft), and 6.1 m (20 ft) from the light bulb.
The felt ring in each experiment was wetted with 2 g of solution. […] The bulb was turned on for periods of time ranging from 4 h to 120 h. This is referred to below as the “Activation Time.” The temperature of the bulb surface at the location of the felt ring was approximately 215° F. (102° C.). In some of the tests, a horizontal barrier was placed above the carpet circles at distances of 5.1 cm (2 inches) or 7.6 cm (3 inches), to simulate penetration of the S-methoprene to difficult-to-reach places such as under furniture. The carpet circles were placed in two positions below the barrier—one in which the center of the carpet circle was 30 cm (12 inches) from the edge of the barrier (identified below as “Position 1”), and the other in which the center of the carpet circle was 7.6 cm (3 inches) from the edge of the barrier (identified below as “Position 2”).
After these exposures, the carpet circles were removed from the room, and sprinkled with flea rearing media and infested with 100 viable flea eggs. Similar carpet circles that had not undergone exposure to the volatilized S-methoprene were similarly sprinkled and infested. The exposed (test) and unexposed (control) carpet circles were then placed in a warm (27° C., 80° F.), high humidity (80% relative humidity) room for 35 days to allow any viable flea eggs in the circles to develop to adult fleas. In some of the tests, the carpet circles were allowed to rest for 35 days after removal from the treatment room before being infested with the flea eggs, to test for residual efficacy. In all cases, efficacy was determined by comparing the results from test circles to those from the control circles.

fleas [2] = experiment: Flea control on carpet circles by S-methoprene volatilized by a plug-in heater; assay type: in vivo, Ctenocephalides felis; conditions: for Adult Flea Emergence (From 100 Eggs), Individual Tests: 0.1 g, room 78.4 m^3, activation time 4 h, three carpet circles; for Emax: Ctenocephalides felis
Procedure: This example illustrates the efficacy of S-methoprene volatilized by a plug-in heater designed for use with mosquito repellents. The heater was an AgRevo heater, 110-120v, 50-60 Hz, 5 watts, purchased from DBK Espana Household Technologies, and the tests were performed in the same test room used for Example 1, adjusted to a floor area of 18.6 m^2 (200 ft^2), resulting in a room volume of 78.4 m^3 (2,800 ft^3). The S-methoprene was placed in the heater by wetting a Whatman filter pad consisting of 50% cellulose and 50% glass fiber, the wetting solution consisting of 8.8% (by weight) S-methoprene in neat 1-methoxy 2-propanol. The amount of solution used was 1.2 g, resulting in 0.1 g of S-methoprene in the pad. Carpet circles were used as in the preceding examples, and all other procedures were the same as those in Example 1. Carpet circles were placed at distances of 0.61 m (2 ft), 3.0 m (10 ft), and 6.1 m (20 ft) from the plug-in-heater, with three carpet circles at each location. Three additional carpet circles were retained outside the room to avoid exposure to the volatilized S-methoprene for use as controls. The activation time for the test circles was four hours. Efficacy was determined by comparing the results from the test circles to those from the control circles.

fleas [3] = experiment: Residual flea control on carpet circles by S-methoprene volatilized from a 60-watt light bulb in a residential living room; assay type: in vivo, Ctenocephalides felis; conditions: for Number of Adult Fleas Emerging From 100 Eggs, individual test samples: 0.1 g (Solution B), 4 h exposure, 6.1 m from bulb, samples 1-6; for Percent Control (Arithmetic) / Percent Control (Geometric): relative to control samples
Procedure: This example is a further illustration of the efficacy of S-methoprene volatilized by heating from an incandescent light bulb in the control of fleas. The test was performed in a conventional residential living room with a floor area of 21.5 m^2 (231 ft^2). A single standard 60-watt incandescent bulb was used as the heat source, with a felt ring containing 0.1 g of S-methoprene (using Solution B of Example 1). The temperature of the bulb surface at the location of the felt ring was approximately 200° F. (93° C.). The exposure time (the length of time that the lamp containing the bulb was turned on) was four hours. The carpet circles were placed twenty feet (6.1 m) from the bulb.
After exposure to the volatilized S-methoprene, the carpet circles were each aged (allowed to rest without additional exposure) for 1, 2, 3, or 4 months. They were then challenged by infestation with flea eggs in the same manner as described above in Example 1. The results, expressed in terms of the number of adult fleas emerging after 35 days, are listed in Table II, together with corresponding results from control samples.

[4] = 0.1 g, room 78.4 m^3, activation time 4 h, carpet centre 7.6 cm from barrier edge, 3.0 m
[5] = 0.1 g, room 78.4 m^3, activation time 4 h, carpet centre 30 cm from barrier edge, 3.0 m

## COC(C)(C)CCC[C@H](C)C/C=C/C(C)=C/C(=O)OC(C)C [S-methoprene, (E,E)-(7S)-11-methoxy-3,7,11-trimethyldodeca-2,4-dienoate, isopropyl ester]
[1]; [4]
  Efficacy Under 2-in. Overhead Barrier, Position 2: Position 2: 96%
  Efficacy Under 3-in. Overhead Barrier, Position 2: Position 2: 100%
[1]; [5]
  Efficacy Under 2-in. Overhead Barrier, Position 1: Position 1: 99%
  Efficacy Under 3-in. Overhead Barrier, Position 1: Position 1: 100%
[1]; 0.1 g, room 78.4 m^3, activation time 24 h, 0.61 m from source
  Efficacy at Indicated Distance from Source: 99%
[1]; 0.1 g, room 78.4 m^3, activation time 24 h, 0.61 m
  Efficacy at Indicated Distance from Source, 35-Day Residual Effect: 96%
[1]; 0.1 g, room 78.4 m^3, activation time 24 h, 3.0 m from source
  Efficacy at Indicated Distance from Source: 99%
[1]; 0.1 g, room 78.4 m^3, activation time 24 h, 3.0 m
  Efficacy at Indicated Distance from Source, 35-Day Residual Effect: 96%
[1]; 0.1 g, room 78.4 m^3, activation time 24 h, 6.1 m from source
  Efficacy at Indicated Distance from Source: 99%
[1]; 0.1 g, room 78.4 m^3, activation time 24 h, 6.1 m
  Efficacy at Indicated Distance from Source, 35-Day Residual Effect: 97%
[1]; 0.1 g, room 117.6 m^3, activation time 4 h, 0.61 m from source
  Efficacy at Indicated Distance from Source: 100%
[1]; 0.1 g, room 117.6 m^3, activation time 4 h, 3.0 m from source
  Efficacy at Indicated Distance from Source: 99.4%
[1]; 0.1 g, room 117.6 m^3, activation time 4 h, 6.1 m from source
  Efficacy at Indicated Distance from Source: 99.4%
[1]; 0.1 g, room 186.8 m^3, activation time 4 h, 0.61 m from source
  Efficacy at Indicated Distance from Source: 100%
[1]; 0.1 g, room 186.8 m^3, activation time 4 h, 3.0 m from source
  Efficacy at Indicated Distance from Source: 99.6%
[1]; 0.1 g, room 186.8 m^3, activation time 4 h, 6.1 m from source
  Efficacy at Indicated Distance from Source: 100%
[1]; 0.1 g, room 196 m^3, activation time 4 h, 0.61 m from source
  Efficacy at Indicated Distance from Source: 95%
[1]; 0.1 g, room 196 m^3, activation time 4 h, 3.0 m from source
  Efficacy at Indicated Distance from Source: 97.3%
[1]; 0.1 g, room 196 m^3, activation time 4 h, 6.1 m from source
  Efficacy at Indicated Distance from Source: 96.5%
[1]; 1.8 g S-methoprene volatilized, room 78.4 m^3, activation time 120 h, 0.61 m from source
  Efficacy at Indicated Distance from Source: 100%
[1]; 1.8 g S-methoprene volatilized, room 78.4 m^3, activation time 120 h, 3.0 m from source
  Efficacy at Indicated Distance from Source: 100%
[1]; 1.8 g S-methoprene volatilized, room 78.4 m^3, activation time 120 h, 6.1 m from source
  Efficacy at Indicated Distance from Source: 100%
[1]; all cases, including lower dosage rate, 35-day residual effect, overhead barrier
  Flea control, result in words: excellent control was achieved in all cases
Fleas [2]; 0.61 m from heater
  Adult Flea Emergence (From 100 Eggs), Average: 1
  Adult Flea Emergence (From 100 Eggs), Individual Tests: 0/1/2
Fleas [2]; 3.0 m from heater
  Adult Flea Emergence (From 100 Eggs), Average: 0.3
  Adult Flea Emergence (From 100 Eggs), Individual Tests: 1/0/0
Fleas [2]; 6.1 m from heater
  Adult Flea Emergence (From 100 Eggs), Average: 0.3
  Adult Flea Emergence (From 100 Eggs), Individual Tests: 1/0/0
Fleas [2]; 0.61 m from heater, read-out: % Efficacy (Relative to Control)
  Emax: 92.7%
Fleas [2]; 3.0 m from heater, read-out: % Efficacy (Relative to Control)
  Emax: 97.8%
Fleas [2]; 6.1 m from heater, read-out: % Efficacy (Relative to Control)
  Emax: 97.8%
Fleas [2]; all distances from heater, read-out: % Efficacy (Relative to Control), Overall
  Emax: 96.1%
Fleas [2]; all distances from the plug-in heater
  Flea control, result in words: excellent control at all distances
Fleas [3]; 1 month after treatment
  Number of Adult Fleas Emerging From 100 Eggs, Mean (Arithmetic), test samples: 2.8
  Number of Adult Fleas Emerging From 100 Eggs, Mean (Geometric), test samples: 2.7
  Number of Adult Fleas Emerging From 100 Eggs, individual test samples: 3 (2×) and 2 (3×) and 5
  Percent Control (Arithmetic): 95.6%
  Percent Control (Geometric): 95.8%
Fleas [3]; 2 months after treatment
  Number of Adult Fleas Emerging From 100 Eggs, Mean (Arithmetic), test samples: 3.2
  Number of Adult Fleas Emerging From 100 Eggs, Mean (Geometric), test samples: 1.9
  Number of Adult Fleas Emerging From 100 Eggs, individual test samples: 5 and 2 (2×) and 0 and 4 and 6
  Percent Control (Arithmetic): 95.5%
  Percent Control (Geometric): 97.3%
Fleas [3]; 3 months after treatment
  Number of Adult Fleas Emerging From 100 Eggs, Mean (Arithmetic), test samples: 3.7
  Number of Adult Fleas Emerging From 100 Eggs, Mean (Geometric), test samples: 0.7
  Number of Adult Fleas Emerging From 100 Eggs, individual test samples: 1 and 0 (3×) and 5 and 16
  Percent Control (Arithmetic): 94.0%
  Percent Control (Geometric): 98.9%
Fleas [3]; 4 months after treatment
  Number of Adult Fleas Emerging From 100 Eggs, Mean (Arithmetic), test samples: 4.0
  Number of Adult Fleas Emerging From 100 Eggs, Mean (Geometric), test samples: 3.0
  Number of Adult Fleas Emerging From 100 Eggs, individual test samples: 1 (2×) and 8 and 4 (2×) and 6
  Percent Control (Arithmetic): 94.3%
  Percent Control (Geometric): 95.7%
Fleas [3]; all cases, 1-4 months after treatment
  Flea control, result in words: excellent control was achieved in all cases
Fleas [3]; carpet circles aged after exposure
  Persistence of the treatment: persistent for up to four months

— patent US20010005511A1, “Insect control by insect growth regulators broadcast by volatilization” (Wellmark International, priority 1999, published 2001)
